In paper PMC11606603, “The membrane domains of mammalian adenylyl cyclases are lipid receptors” (eLife, 2024):
“And” between values parts separate entries of the source, which are not always exact repeats. Equal values may be shown once.

How the values were obtained:
mAC3 = molecular target: T1, mAC3 (Homo sapiens, UniProt O60266); test: AC assay, Gsα-stimulated mAC3 in membranes from transfected HEK293 cells; type: biochemical; conditions: for activity [%] (100% = 300nM Gsα stimulation): mAC3
T1 construct: Human mAC genes were from GenScript and fitted with a C-terminal FLAG-tag; FLAG (C); made in house; host or cells: HEK293, permanently transfected; membrane preparation
T1 sequence (P63092 whole entry Q227L partner, one chain of several): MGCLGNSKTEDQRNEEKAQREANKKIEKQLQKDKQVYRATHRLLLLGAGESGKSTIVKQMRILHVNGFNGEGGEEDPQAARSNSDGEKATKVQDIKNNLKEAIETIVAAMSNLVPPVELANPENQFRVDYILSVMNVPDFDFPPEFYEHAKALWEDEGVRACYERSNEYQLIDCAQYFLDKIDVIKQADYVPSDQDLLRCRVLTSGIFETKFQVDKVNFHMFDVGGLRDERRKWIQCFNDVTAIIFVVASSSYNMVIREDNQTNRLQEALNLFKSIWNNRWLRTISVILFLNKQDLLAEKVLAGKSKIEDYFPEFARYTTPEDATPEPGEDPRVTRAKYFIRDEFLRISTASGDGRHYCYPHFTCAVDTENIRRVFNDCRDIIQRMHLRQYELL
How it was run: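 EC50 and IC50 values come from cAMP production, read with a Cisbio cAMP kit and converted via a standard curve. Assay mix held 1 mM ATP, 2 mM MgCl2, 3 mM creatine phosphate and 60 μg/ml creatine kinase in 50 mM MOPS pH 7.5, using transfected HEK293 membranes.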

[1] = molecular target: T2, HEK293 cells permanently transfected with mAC3 (Homo sapiens, UniProt O60266); test: cAMP accumulation assay, isoproterenol-stimulated HEK-mAC3 cells; type: cell-based; conditions: in words
T2 construct: Human mAC genes were from GenScript and fitted with a C-terminal FLAG-tag; FLAG (C); expressed in transfected cells; host or cells: HEK293, permanently transfected
T2 sequence (O60266 1-1144): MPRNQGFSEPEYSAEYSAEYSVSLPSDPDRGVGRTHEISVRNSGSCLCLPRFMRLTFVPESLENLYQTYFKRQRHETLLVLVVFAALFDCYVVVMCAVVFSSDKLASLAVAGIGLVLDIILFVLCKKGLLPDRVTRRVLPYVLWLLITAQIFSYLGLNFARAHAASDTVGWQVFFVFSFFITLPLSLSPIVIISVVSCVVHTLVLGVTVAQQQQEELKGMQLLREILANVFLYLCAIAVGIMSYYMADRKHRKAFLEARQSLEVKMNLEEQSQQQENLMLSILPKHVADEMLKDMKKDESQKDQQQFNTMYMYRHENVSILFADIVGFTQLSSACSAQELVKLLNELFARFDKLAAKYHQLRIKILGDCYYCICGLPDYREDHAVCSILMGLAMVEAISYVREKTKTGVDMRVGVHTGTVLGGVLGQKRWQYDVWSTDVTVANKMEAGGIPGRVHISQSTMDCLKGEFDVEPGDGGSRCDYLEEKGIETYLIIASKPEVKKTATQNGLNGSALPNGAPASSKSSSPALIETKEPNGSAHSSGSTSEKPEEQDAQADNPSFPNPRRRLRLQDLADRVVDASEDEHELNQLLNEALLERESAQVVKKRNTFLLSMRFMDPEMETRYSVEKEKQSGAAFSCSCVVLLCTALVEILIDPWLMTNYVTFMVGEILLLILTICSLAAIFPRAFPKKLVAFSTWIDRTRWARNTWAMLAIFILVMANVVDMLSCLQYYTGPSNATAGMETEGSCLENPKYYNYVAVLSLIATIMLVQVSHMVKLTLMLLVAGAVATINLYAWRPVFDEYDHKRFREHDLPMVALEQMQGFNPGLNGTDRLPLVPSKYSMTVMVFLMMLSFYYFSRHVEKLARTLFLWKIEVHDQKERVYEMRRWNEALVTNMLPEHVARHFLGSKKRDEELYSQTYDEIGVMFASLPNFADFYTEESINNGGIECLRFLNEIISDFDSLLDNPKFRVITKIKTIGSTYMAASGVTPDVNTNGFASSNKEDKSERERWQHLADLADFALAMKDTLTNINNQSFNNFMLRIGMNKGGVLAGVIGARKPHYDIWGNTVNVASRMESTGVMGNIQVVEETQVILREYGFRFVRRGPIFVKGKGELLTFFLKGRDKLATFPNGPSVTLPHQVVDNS
Experimental: hAC sequences were from NCBI were: ADCY1: NM_021116.3; ADCY2: NM_020546.2; ADCY3: NM_004036.4; ADCY4: NM_001198568.2; ADCY5: NM_183357.2; ADCY6: NM_015270.4; ADCY7: NM_001114.4; ADCY8: NM_001115.2; ADCY9: NM_001116.3. Human mAC genes were from GenScript and fitted with a C-terminal FLAG-tag. […] The gene was synthesized by GenScript. HEK293 cells were maintained in Dulbeccos Modified Eagle Medium (DMEM) with 10% fetal bovine serum at 37°C and 5% CO2. Transfection with AC plasmids was with PolyJet (SignaGen, Frederick, MD, USA). Permanent cell lines were generated by selection for 7 days with 600 µg/ml G418 and maintained with 300 µg/ml For membrane preparation, cells were tyrpsinized, collected by centrifugation (3000 × g, 5 min) and lysed and homogenized in 20 mM HEPES, pH 7.5, 1 mM Ethylenediaminetetraacetic acid (EDTA), 2 mM MgCl2, 1 mM Dithiothreitol (DTT), one tablet of cOmplete, EDTA-free (per 50 ml) and 250 mM sucrose by 20 strokes in a potter homogenizer on ice. Debris was removed (5 min at 1000 × g, 0°C), membranes were collected at 100,000 × g, 60 min at 0°C, suspended and stored at −80°C in 20 mM MOPS, pH 7.5, 0.5 mM EDTA, 2 mM MgCl2. […] Three cerebral cortices were dissected and homogenized in 4.5 ml cold 48 mM Tris–HCl, pH 7.4, 12 mM MgC1_2, and 0.1 mM Ethylene glycol-bis(β-aminoethyl ether)-N,N,N′,N′-tetraacetic acid (EGTA) with a Polytron hand disperser (Kinematica AG, Switzerland). […] The pellet was washed once with 5 ml 1 mM KHCO3. The final suspension in 2 ml 1 mM KHCO3 was stored in aliquots at −80°C.
HEK293 cells stably expressing mAC isoforms 3, 5, and mAC5(membr)_mAC3(cat) were plated at 2500–10,000 cells/well into 384-well plates. […] Addition of Cisbio HTRF detection reagents stopped the reaction and cAMP levels were determined.

Structure (SMILES) | activity [%] (100% = 300nM Gsα stimulation) (mAC3; 100µM Anandamide concentration, Figure 9 D) | activity [%] (100% = 300nM Gsα stimulation) (mAC3; Anandamide 0.1 µM) | activity [%] (100% = 300nM Gsα stimulation) (mAC3; Anandamide 1 µM) | activity [%] (100% = 300nM Gsα stimulation) (mAC3; Anandamide 10 µM) | activity [%] (100% = 300nM Gsα stimulation) (mAC3; Anandamide 30 µM) | Effect on isoproterenol-stimulated cAMP formation in HEK-mAC3 [1] | mAC3 activity [%] (100% = 300nM Gsα stimulation) (mAC3; fatty acid 20 µM, individual experiments)
CCCCC/C=C\C/C=C\C/C=C\C/C=C\CCCC(=O)NCCO [Anandamide, arachidonoylethanolamide] | 165% | 100% | 87% and 101% and 117% and 100% and 94% and 127% and 77% | 105% and 80% and 130% and 120% and 88% and 111% and 112% and 137% | 96% and 65% and 85% and 72% and 94% and 68% and 100% and 101% | no effect | 
CCCCC/C=C\C/C=C\C/C=C\C/C=C\CCCC(=O)O [Arachidonic acid, Arachidonic ((5Z,8Z,11Z,14Z)-eicosatetraenoic) acid] |  |  |  |  |  |  | 115% and 168% and 182% and 127%
